Results reported in patent US5196449A, “Methods and pharmaceutical compositions for the treatment of ophthalmic diseases” (IdB Holding SpA, priority 1989, dated 1993).

Key:
[1] = tested on: vessels of the ciliary body (haemato-ophthalmic barrier); assay: Permeability of the haemato-ophthalmic barrier induced by paracentesis in the rabbit (Evans Blue dye method); assay type: in vivo, New Zealand albino rabbit; conditions: for Amount of dye coming out of the vessels of the ciliary body (in words): single dose of 100 or 200 mg/kg, two or four hours after administration
Description: (§1) The effect on the permeability of the haemato-ophthalmic barrier was measured by inducing an increase in the permeability of the vessels of the ciliary body, either by paracentesis or by instillation of sodium hydroxide into the conjunctival sac. The reduction in permeability induced by oral administration of the products under examination was then measured.
The experiment was carried out on 80 New Zealand albino rabbits, average body weight 2.8 kg, divided into eight groups each of ten animals.
The vasal permeability was measured by the dye method: 1 ml of Evans Blue in a concentration of 0.5% was injected into the marginal vein of the auricle.
After 10 minutes the left eye was subjected to paracentesis and after 12 minutes a sample of aqueous humour was taken. The quantity of Evans Blue in the sampled aqueous humour was used to assess the permeability of the haemato-ophthalmic barrier. Immediately afterwards, compounds I and II were administered in doses of 100 or 200 mg/kg by stomach probe.
Two or four hours after administration, paracentesis was carried out on the right eye and after 12 minutes a sample of aqueous humour was taken.
The quantity of Evans Blue in the aqueous humour was evaluated by spectrophotometer reading at 623 nm. […]

[2] = tested on: vessels of the ciliary body (haemato-ophthalmic barrier); assay: Permeability of the haemato-ophthalmic barrier induced by NaOH in the rabbit (Evans Blue); assay type: in vivo, New Zealand rabbit; conditions: seven days; for Percentage variation of Evans Blue: vs controls; for Reduction in permeability, significance (in words): 100 mg/kg os; for Permeability of the vessels of the ciliary body caused by the irritating agent (in words): 50 or 100 mg/kg os
Description: as §1
The experiment was carried out on 50 New Zealand rabbits, average body weight 2.2 kg. The substance was administered once a day for seven days in doses of 50 or 100 mg/kg. A control group was treated with tap water.
Thirty minutes after the last administration, 1 ml of a 0.5% solution of Evans Blue was administered in the marginal vein of the ear. After 30 minutes, inflammation of the eye tissue was produced by instilling two drops of 0.25N sodium hydroxide in the conjunctival sac. Two hours later the animal was anesthesized and a sample of aqueous humour was taken in order to measure the proportion of dye.

[3] = tested on: vessels of the ciliary body (haemato-ophthalmic barrier); assay: Permeability of the haemato-ophthalmic barrier induced by histamine (corneal lens method, Evans Blue); assay type: in vivo, New Zealand rabbit; conditions: for Permeability of the vessels of the ciliary body caused by histamine (in words) / Effects, significance (in words): 100 mg/kg by gavage; for Effects, significance (in words): after 2 and 4 hours; for Evans Blue in aqueous humour, m ± sd / Percentage variation of Evans Blue relative to time 0: 100 mg/kg os
Description: The experiment was carried out on […] New Zealand rabbits, average body weight 2.5 kg, divided into three groups of ten animals each.
The vasal permeability was measured by the dye method: 1 ml of Evans Blue in a concentration of 0.5% was injected into the marginal vein of the ear. After 10 min a soft corneal lens embedded in a 2% solution of histamine hydrochloride was applied for 30 min to the left eye.
The left eye was subjected to paracentesis and a sample of aqueous humour was taken.
Immediately after, the substances were given by gavage at the dose of 100 mg/kg. Two or four hours after administration a lens embedded with histamine as described before was applied for 30 min on the right eye. Paracentesis was carried out and aqueous humor was taken.
The quantity of Evans Blue in the aqueous humor was evaluated as described in 1(i).

[4] = Acute toxicity in mice, stomach probe; assay type: in vivo; conditions: for Toxic symptoms or death (in words): doses up to 6 g/kg; for LD50: mouse, in vivo, po
Description: (§2) This was tested on mice and rats after administration by stomach probe. […] The LD 50 must therefore be above 6 g/kg.

[5] = Acute toxicity in rats, stomach probe; assay type: in vivo; conditions: for Toxic symptoms or death (in words): doses up to 6 g/kg; for LD50: rat, in vivo, po
Description: as §2

[6] = tested on: conjunctiva, cornea, iris, crystalline lens, vitreous humour and retina; assay: Ocular tolerability after oral administration; assay type: in vivo, New Zealand rabbit; conditions: single (200 mg/kg) or repeated (100 mg/kg, 7 days) oral administration
Description: The ocular tolerability of compounds I and II was measured in New Zealand rabbits on the anterior segment (conjunctiva, cornea, iris and crystalline lens) and on the posterior segment (vitreous humour and retina) after oral administration, local application and intra-ocular injection.
Both products were administered by stomach probe, either in a single dose of 200 mg/kg or in repeated doses of 100 mg/kg for 7 days. Surveys were made before and 1, 2 and 4 hours after acute administration, on the third and seventh days after repeated administration and 5 days after suspension of treatment.

[7] = 100 mg/kg os, 1 administration, 2 hours
[8] = 100 mg/kg os, 1 administration, 4 hours
[9] = 100 mg/kg os, 7 administrations, 24 hours after last
[10] = 200 mg/kg os, 1 administration, 2 hours
[11] = 200 mg/kg os, 1 administration, 4 hours

SMILES | Evans Blue in aqueous humour, m ± s.d. [1, 7] | Percentage variation of Evans Blue relative to time 0 [1, 7] | Evans Blue in aqueous humour, m ± s.d. [1, 8] | Percentage variation of Evans Blue relative to time 0 [1, 8] | Evans Blue in aqueous humour, m ± s.d. [1, 9] | Percentage variation of Evans Blue relative to time 0 [1, 9] | Evans Blue in aqueous humour, m ± s.d. [1, 10] | Percentage variation of Evans Blue relative to time 0 [1, 10] | Evans Blue in aqueous humour, m ± s.d. [1, 11] | Percentage variation of Evans Blue relative to time 0 [1, 11] | Amount of dye coming out of the vessels of the ciliary body (in words) [1] | Evans Blue, m ± s.e. ([2]; 50 mg/kg/day os) | Percentage variation of Evans Blue ([2]; 50 mg/kg/day os) | Reduction in permeability, significance (in words) [2] | Evans Blue, m ± s.e. ([2]; 100 mg/kg/day os) | Percentage variation of Evans Blue ([2]; 100 mg/kg/day os) | Permeability of the vessels of the ciliary body caused by the irritating agent (in words) [2] | Permeability of the vessels of the ciliary body caused by histamine (in words) [3] | Effects, significance (in words) [3] | Evans Blue in aqueous humour, m ± sd ([3]; 2 hours) | also measured
Oc1ccc(-c2[o+]c3cc(O)cc(O)c3cc2O)cc1 [Compound I, pelargonidin] | 34.9 ± 8.5 µg/mL | -15.4% | 46.9 ± 17.5 µg/mL | -15.5% | 44.2 ± 11.7 µg/mL | -22.4% | 42.2 ± 15.0 µg/mL | -16.4% | 44.8 ± 20.2 µg/mL | -15.6% | reduced in a statistically significant manner | 5.8 ± 0.8 µg/mL | -2% | statistically significant compared with the controls | 3.5 ± 0.6 µg/mL | -40% | dose-dependent reduction in the permeability of the vessels of the ciliary body | reduced permeability of the vessels of the ciliary body caused by histamine | statistically significant compared with the basal values | 86.2 ± 6.1 µg/mL | Percentage variation of Evans Blue relative to time 0 ([3]; 2 hours): -19.0%; Evans Blue in aqueous humour, m ± sd ([3]; 4 hours): 75.9 ± 10.3 µg/mL; Percentage variation of Evans Blue relative to time 0 ([3]; 4 hours): -29.9%; Toxic symptoms or death (in words) [4]: did not cause toxic symptoms or death; LD50 [4]: > 6000 mg/kg; Toxic symptoms or death (in words) [5]: did not cause toxic symptoms or death; LD50 [5]: > 6000 mg/kg; Modifications in ocular structures (in words) [6]: did not induce modifications in the conjunctive, cornea, iris, crystalline lens, vitrous humour or retina
Oc1cc(O)c2cc(O)c(-c3cc(O)c(O)c(O)c3)[o+]c2c1 [Compound II, delphinidin] | 41.5 ± 7.9 µg/mL | -14.1% | 45.6 ± 9.7 µg/mL | -14.9% | 42.5 ± 13.3 µg/mL | -20.8% | 45.1 ± 10.3 µg/mL | -15.1% | 45.9 ± 12.2 µg/mL | -15.1% | reduced in a statistically significant manner | 5.1 ± 0.7 µg/mL | -14% | statistically significant compared with the controls | 3.2 ± 0.4 µg/mL | -45% | dose-dependent reduction in the permeability of the vessels of the ciliary body | reduced permeability of the vessels of the ciliary body caused by histamine | statistically significant compared with the basal values | 82.0 ± 7.0 µg/mL | Percentage variation of Evans Blue relative to time 0 ([3]; 2 hours): -25.3%; Evans Blue in aqueous humour, m ± sd ([3]; 4 hours): 68.8 ± 8.7 µg/mL; Percentage variation of Evans Blue relative to time 0 ([3]; 4 hours): -31.7%; Toxic symptoms or death (in words) [4]: did not cause toxic symptoms or death; LD50 [4]: > 6000 mg/kg; Toxic symptoms or death (in words) [5]: did not cause toxic symptoms or death; LD50 [5]: > 6000 mg/kg; Modifications in ocular structures (in words) [6]: did not induce modifications in the conjunctive, cornea, iris, crystalline lens, vitrous humour or retina
